In data set [1] the test system is Plasmodium berghei. The data set is described as follows: Antiplasmodial activity against drug-sensitive Plasmodium berghei infected in mouse assessed as change in mean survival time at 40 mg/kg, sc administered as single dose 72 hrs post infection. In kind it is functional. The following applies: route subcutaneous.
A further data set deals with Enterococcus faecalis. The data set is described as follows: Antibacterial activity against Streptococcus faecalis MGH2 assessed as growth inhibition by Gradient plate test. In kind it is functional.
Another data set concerns Shigella sonnei. The data set is described as follows: Antibacterial activity against Shigella sonnei C-10 by Gradient plate test. In kind it is functional, organism-based.
Data set [2] concerns Plasmodium berghei. The data set is described as follows: Antiplasmodial activity against drug-sensitive Plasmodium berghei infected in mouse assessed as cure from infection at 640 mg/kg, sc administered as single dose 72 hrs post infection measured 60 days postinfection. In kind it is functional, organism-based. Also on record: dose 640 mg/kg.
In data set [3] the test system is Staphylococcus aureus. The data set is described as follows: Antibacterial activity against Staphylococcus aureus UC-76 assessed as growth inhibition by Gradient plate test. In kind it is functional.
Data set [4] deals with Plasmodium berghei. The data set is described as follows: Antiplasmodial activity against drug-sensitive Plasmodium berghei infected in mouse assessed as change in mean survival time at 160 mg/kg, sc administered as single dose 72 hrs post infection. The class given is functional. The conditions noted are these: route subcutaneous.
For the next data set, the system named is Pseudomonas aeruginosa. The data set is described as follows: Antibacterial activity against Pseudomonas aeruginosa 28 by Gradient plate test. In kind it is functional, organism-based.
In data set [5] the test system is Plasmodium berghei. The data set is described as follows: Antiplasmodial activity against drug-sensitive Plasmodium berghei infected in mouse assessed as change in mean survival time at 320 mg/kg, sc administered as single dose 72 hrs post infection measured 60 days postinfection. In kind it is functional. The following applies: route subcutaneous.
Data set [6] has as its system Plasmodium berghei. The data set is described as follows: Antiplasmodial activity against drug-sensitive Plasmodium berghei infected in mouse assessed as change in mean survival time at 80 mg/kg, sc administered as single dose 72 hrs post infection. The following applies: route subcutaneous. In kind it is functional.
Data set [7] relates to Staphylococcus aureus. The data set is described as follows: Antibacterial activity against drug-resistant Staphylococcus aureus S18713 assessed as growth inhibition by Gradient plate test. In kind it is functional.
In data set [8] the test system is Plasmodium berghei. The data set is described as follows: Antiplasmodial activity against drug-sensitive Plasmodium berghei infected in mouse assessed as change in mean survival time at 20 mg/kg, sc administered as single dose 72 hrs post infection. In kind it is functional. The conditions noted are these: route subcutaneous.
Another data set deals with Escherichia coli. The data set is described as follows: Antibacterial activity against Escherichia coli Vogel by Gradient plate test. In kind it is functional, organism-based.
In data set [9] the test system is Plasmodium berghei. The data set is described as follows: Antiplasmodial activity against drug-sensitive Plasmodium berghei infected in mouse assessed as change in mean survival time at 640 mg/kg, sc administered as single dose 72 hrs post infection. In kind it is functional. The following applies: route subcutaneous.
Data set [10] deals with Plasmodium berghei. The data set is described as follows: Antiplasmodial activity against drug-sensitive Plasmodium berghei infected in mouse assessed as cure from infection at 160 mg/kg, sc administered as single dose 72 hrs post infection measured 60 days postinfection. In kind it is functional, organism-based. Also on record: dose 160 mg/kg.
Data set [11] deals with Mus musculus. The data set is described as follows: Toxicity in drug-sensitive Plasmodium berghei infected mouse at 320 mg/kg, sc administered as single dose 72 hrs post infection measured 2 to 5 days postinfection. The class given is organism-based. Also on record: dose 320 mg/kg, route subcutaneous. The following applies: in vivo.
The test system of data set [12] is Mus musculus. The data set is described as follows: Toxicity in drug-sensitive Plasmodium berghei infected mouse at 640 mg/kg, sc administered as single dose 72 hrs post infection […]. The class given is organism-based. Also noted: dose 640 mg/kg, route subcutaneous. The conditions noted are these: in vivo.
Data set [13] deals with Plasmodium berghei. The data set is described as follows: Antiplasmodial activity against drug-sensitive Plasmodium berghei infected in mouse assessed as cure from infection at 320 mg/kg, sc administered as single dose 72 hrs post infection measured 60 days postinfection. Also noted: dose 320 mg/kg. The class given is functional, organism-based.

≈ marks a conversion by molar mass, not a printed value. Calls of active or inactive are those of the source. No cut-off for these calls is given here.

The term MIC denotes the least concentration at which growth counts as inhibited. In the case of `Nc1nc(N)c2cc(SC3CCCCC3)ccc2n1`, the MSD in the data set with Plasmodium berghei [1] amounted to 2.5 days; with Plasmodium berghei [4], 9.1 days; in the data set on Plasmodium berghei [5], 12.9 days; in the data set with Plasmodium berghei [6], 5.7 days; with Plasmodium berghei [8] it was 0.7 days. Also, the MIC was 10 µg/mL (≈ 36.4 µM) in the data set on Enterococcus faecalis, below 0.25 µg/mL with Staphylococcus aureus [3] and 10 µg/mL (≈ 36.4 µM) in the data set with Staphylococcus aureus [7]. The result in the data set with Shigella sonnei, with Pseudomonas aeruginosa and in the data set on Escherichia coli was inactive. The result with Plasmodium berghei [2] was Active.
As to `Nc1nc(N)c2cc(SCCc3ccccc3)ccc2n1`, the MSD came to 0.5 days in the data set with Plasmodium berghei [1]; 4.5 days with Plasmodium berghei [4]; 17.2 days in the data set with Plasmodium berghei [5]; 0.9 days with Plasmodium berghei [6]; 0.5 days in the data set on Plasmodium berghei [8].
Regarding `Nc1nc(N)c2cc(SC34CC5CC(CC(C5)C3)C4)ccc2n1`, the MSD in the data set on Plasmodium berghei [1] amounted to 0.3 days; with Plasmodium berghei [9], 10.7 days; with Plasmodium berghei [4], 0.3 days; with Plasmodium berghei [5] it was 1.1 days; in the data set with Plasmodium berghei [6], 0.3 days; in the data set on Plasmodium berghei [8] it was 0.1 days. Moreover, the MIC in the data set on Enterococcus faecalis, in the data set with Staphylococcus aureus [3] and in the data set with Staphylococcus aureus [7] was below 0.25 µg/mL in each case. The result in the data set with Shigella sonnei, in the data set on Pseudomonas aeruginosa and in the data set with Escherichia coli was inactive.
With `Nc1nc(N)c2cc(S(=O)(=O)Cc3ccc(Cl)cc3)ccc2n1`, the MSD with Plasmodium berghei [1] was determined as 0.1 days; in the data set with Plasmodium berghei [9] it was 5.9 days; in the data set with Plasmodium berghei [4] it was 0.3 days; in the data set on Plasmodium berghei [5], 0.9 days; in the data set with Plasmodium berghei [6] it was 0.3 days; in the data set on Plasmodium berghei [8], 0.1 days. The MIC in the data set with Enterococcus faecalis, in the data set with Staphylococcus aureus [3] and with Staphylococcus aureus [7] was above 25 µg/mL throughout. The outcome in the data set on Shigella sonnei, in the data set on Pseudomonas aeruginosa and in the data set with Escherichia coli was inactive.
For the molecule `COc1cc(Cc2cnc(N)nc2N)cc(OC)c1OC` [TRIMETHOPRIM], the MIC in the data set on Enterococcus faecalis, with Staphylococcus aureus [3] and in the data set with Staphylococcus aureus [7] was below 0.25 µg/mL each time. Besides, the outcome in the data set with Shigella sonnei, with Pseudomonas aeruginosa and in the data set with Escherichia coli was inactive.
Take `CC1(C)N=C(N)N=C(N)N1c1ccc(Cl)cc1.Cl` [CHLORCYCLOGUANIL HYDROCHLORIDE]: the MSD in the data set with Plasmodium berghei [1] was 13.4 days; with Plasmodium berghei [6], 21.6 days; in the data set on Plasmodium berghei [8], 7.9 days. Also, in the data set with Plasmodium berghei [10], the outcome was Active. The Activity entry in the data set with Mus musculus [11] and in the data set with Mus musculus [12] was “Toxic” in each case.
As for `CC(=O)O.Nc1nc(N)c2cc(NCc3ccc(Cl)c(Cl)c3)ccc2n1`, the MSD amounted to 7.1 days in the data set with Plasmodium berghei [1], 9.9 days in the data set with Plasmodium berghei [4], 12.9 days with Plasmodium berghei [6] and 2.5 days with Plasmodium berghei [8]. Also, the result in the data set with Plasmodium berghei [2] and in the data set with Plasmodium berghei [13] was Active.
In the case of `Nc1nc(N)c2cc(OCc3ccc(Cl)cc3)ccc2n1`, the MSD is 1.7 days in the data set on Plasmodium berghei [1]; 13.3 days with Plasmodium berghei [9]; 7.2 days with Plasmodium berghei [4]; 11.2 days in the data set with Plasmodium berghei [5]; 3.6 days in the data set on Plasmodium berghei [6]; 1.2 days with Plasmodium berghei [8].
Regarding `CC(Sc1ccc2nc(N)nc(N)c2c1)c1ccc(Cl)cc1` (stereo unspecified), the MSD in the data set on Plasmodium berghei [1] was determined as 5.7 days; in the data set on Plasmodium berghei [4], 10.9 days; with Plasmodium berghei [5], 17 days; with Plasmodium berghei [6] it was 9.6 days; in the data set on Plasmodium berghei [8] it was 3.7 days. The MIC in the data set with Enterococcus faecalis is below 0.25 µg/mL; in the data set on Staphylococcus aureus [3] it was below 0.25 µg/mL; in the data set with Staphylococcus aureus [7], 1 µg/mL (≈ 3.02 µM). The result with Shigella sonnei, in the data set on Pseudomonas aeruginosa and in the data set on Escherichia coli was inactive. In addition, the outcome with Plasmodium berghei [2] was Active.
As for `Nc1nc(N)c2c(Cl)c(SCc3ccc(Cl)cc3)ccc2n1`, the MSD in the data set on Plasmodium berghei [1] is 0.5 days; in the data set with Plasmodium berghei [9], 7.9 days; in the data set on Plasmodium berghei [4] it was 1.7 days; in the data set with Plasmodium berghei [5], 3.1 days; in the data set with Plasmodium berghei [6], 1.1 days; in the data set on Plasmodium berghei [8] it was 0.5 days.
Regarding `Nc1nc(N)c2cc(SCc3ccc(Cl)cc3)ccc2n1`, the MSD in the data set with Plasmodium berghei [1] worked out at 0.8 days; with Plasmodium berghei [9], 17.3 days; in the data set on Plasmodium berghei [4] it was 4.2 days; in the data set on Plasmodium berghei [5], 9.8 days; in the data set with Plasmodium berghei [6] it was 2.6 days; in the data set on Plasmodium berghei [8], 0.4 days. Besides, the minimum inhibitory concentration (MIC) with Enterococcus faecalis, in the data set on Staphylococcus aureus [3] and with Staphylococcus aureus [7] was below 0.25 µg/mL in each case. The result in the data set with Shigella sonnei, with Pseudomonas aeruginosa and in the data set on Escherichia coli was inactive.
For the molecule `Nc1nc(N)c2c(Cl)c(S(=O)(=O)Cc3ccc(Cl)cc3)ccc2n1`, the MSD in the data set with Plasmodium berghei [1], in the data set with Plasmodium berghei [9] and in the data set on Plasmodium berghei [4] was 0.1 days throughout. The figures for the MIC in the data set on Enterococcus faecalis, with Staphylococcus aureus [3] and with Staphylococcus aureus [7] were below 0.25 µg/mL, 5 µg/mL (≈ 13 µM) and 10 µg/mL (≈ 26.1 µM), respectively. For the same molecule, the outcome in the data set with Shigella sonnei, with Pseudomonas aeruginosa and with Escherichia coli was inactive.
As to `Nc1nc(N)c2cc([S+]([O-])Cc3ccc(Cl)cc3)ccc2n1` (stereo unspecified), the MSD with Plasmodium berghei [1] turned out to be 0.5 days; in the data set on Plasmodium berghei [9] it was 5.9 days; in the data set on Plasmodium berghei [4], 0.9 days; in the data set with Plasmodium berghei [5], 2.9 days; with Plasmodium berghei [6], 0.7 days; with Plasmodium berghei [8], 0.3 days. The MIC in the data set on Enterococcus faecalis was above 25 µg/mL; in the data set on Staphylococcus aureus [3], 25 µg/mL (≈ 75.1 µM); in the data set on Staphylococcus aureus [7], above 25 µg/mL. Besides, the result in the data set on Shigella sonnei, in the data set on Pseudomonas aeruginosa and in the data set with Escherichia coli was inactive.
For `Nc1nc(N)c2cc(SCc3ccccc3)ccc2n1`, the MSD came to 0.5 days in the data set on Plasmodium berghei [1]; 10.7 days in the data set on Plasmodium berghei [9]; 1.1 days with Plasmodium berghei [4]; 4.9 days in the data set on Plasmodium berghei [5]; 0.9 days in the data set with Plasmodium berghei [6]; 0.5 days in the data set on Plasmodium berghei [8].
Consider `Nc1nc(N)c2c(Cl)c([S+]([O-])Cc3ccc(Cl)cc3)ccc2n1` (stereo unspecified), for which the MSD came out at 0.1 days in the data set with Plasmodium berghei [1], 0.3 days with Plasmodium berghei [9] and 0.3 days in the data set with Plasmodium berghei [4]. Moreover, the values for the MIC in the data set on Enterococcus faecalis, in the data set on Staphylococcus aureus [3] and with Staphylococcus aureus [7] were below 0.25 µg/mL, above 25 µg/mL and above 25 µg/mL, respectively. In addition, the result in the data set with Shigella sonnei, in the data set on Pseudomonas aeruginosa and with Escherichia coli was inactive.
